The record followed here is patent US20090069320A1, “Substituted 4-Amino-Quinazoline Compounds with Metabotropic Glutamate Receptor Regulating Activity and Uses Thereof” (Gruenenthal GmbH, priority 2006, published 2009).

The IC50 is the concentration at which inhibition is half-maximal. The inhibition is the share of the control response that was lost under treatment.

The structures appear in SMILES notation. Where a name gives a salt, the structure may show the parent alone.

T1 sequence (I3LUI7 19-1212): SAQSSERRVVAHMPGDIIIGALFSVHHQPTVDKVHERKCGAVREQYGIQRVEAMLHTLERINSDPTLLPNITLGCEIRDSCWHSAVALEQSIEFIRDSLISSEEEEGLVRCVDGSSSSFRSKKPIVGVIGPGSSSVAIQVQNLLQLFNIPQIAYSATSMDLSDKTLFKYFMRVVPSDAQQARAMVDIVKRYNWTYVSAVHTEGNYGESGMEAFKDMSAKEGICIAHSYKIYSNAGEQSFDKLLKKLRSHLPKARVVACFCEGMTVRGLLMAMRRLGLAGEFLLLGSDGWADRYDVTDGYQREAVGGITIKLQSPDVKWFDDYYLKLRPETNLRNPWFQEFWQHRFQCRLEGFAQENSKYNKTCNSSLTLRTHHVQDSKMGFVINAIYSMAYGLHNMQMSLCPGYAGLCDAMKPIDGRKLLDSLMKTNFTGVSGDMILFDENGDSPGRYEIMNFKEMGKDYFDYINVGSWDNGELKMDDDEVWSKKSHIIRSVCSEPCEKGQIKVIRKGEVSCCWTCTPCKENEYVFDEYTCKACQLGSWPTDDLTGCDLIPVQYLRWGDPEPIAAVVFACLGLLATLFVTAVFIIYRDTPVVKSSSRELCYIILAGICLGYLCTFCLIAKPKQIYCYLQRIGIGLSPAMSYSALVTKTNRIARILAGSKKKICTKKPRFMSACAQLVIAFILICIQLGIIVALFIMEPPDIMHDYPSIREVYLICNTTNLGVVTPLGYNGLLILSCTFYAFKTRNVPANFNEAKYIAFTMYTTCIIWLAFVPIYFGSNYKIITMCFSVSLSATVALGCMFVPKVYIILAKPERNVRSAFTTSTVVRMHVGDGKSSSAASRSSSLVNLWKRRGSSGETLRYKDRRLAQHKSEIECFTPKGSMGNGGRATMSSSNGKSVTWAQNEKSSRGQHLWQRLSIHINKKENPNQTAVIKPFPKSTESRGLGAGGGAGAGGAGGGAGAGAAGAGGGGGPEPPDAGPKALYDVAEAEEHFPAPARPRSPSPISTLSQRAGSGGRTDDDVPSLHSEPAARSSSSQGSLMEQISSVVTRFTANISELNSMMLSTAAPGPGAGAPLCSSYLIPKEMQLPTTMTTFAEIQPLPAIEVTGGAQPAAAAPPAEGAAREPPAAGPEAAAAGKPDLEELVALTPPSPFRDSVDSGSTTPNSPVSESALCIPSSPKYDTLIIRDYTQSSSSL

The first experiment has as its target T1, mGluR5 receptor (Sus scrofa, UniProt I3LUI7).
T1 construct: 450 μg of protein from brain homogenate with 5 nM ^3[H]-MPEP; from tissue; host or cells: pig brain halves without medulla, cerebellum and pons
In words: [3H]-MPEP mGluR5 receptor binding assay (pig brain homogenate). Particulars: 5 nM [3H]-MPEP, read-out: IC50 mGluR5 Receptor (pig) [^3H]-MPEP Bond. The essentials:
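Compounds at 10 μM competed with 5 nM [3H]-MPEP for binding to pig brain membranes (450 μg protein) for 60 min at room temperature in pH 8.0 Hepes buffer. Bound radioactivity was collected on glass-fibre filters and read by β-counting, with 10 μM unlabelled MPEP giving non-specific binding.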
Turning to `O=C1CCC(=O)N1Cc1cccc(-c2ccc3ncnc(NC4CCC4)c3c2)c1` [Example 872, 1-(3-(4-(cyclobutylamino)quinazolin-6-yl)benzyl)pyrrolidine-2,5-dione hydrochloride], the IC50 amounted to 50 nM.

With `O=C1CCC(=O)N1Cc1cccc(-c2ccc3ncnc(N4CCCC4)c3c2)c1` [Example 880, 1-(3-(4-(pyrrolidin-1-yl)quinazolin-6-yl)benzyl)pyrrolidine-2,5-dione], the 50% inhibitory concentration (IC50) came to 4300 nM.

`N#CCC(=O)N(Cc1cccc(-c2ccc3ncnc(NC4CC4)c3c2)c1F)C1CC1` [Example 197, 2-cyano-N-cyclopropyl-N-[3-(4-cyclopropylamino-quinazolin-6-yl)-2-fluoro-benzyl]-acetamide]: the IC50 was determined as 660 nM.

For the compound `CS(=O)(=O)N(Cc1cccc(-c2cc(F)c3ncnc(NC4CC4)c3c2)c1)C1CC1` [Example 678, N-cyclopropyl-N-(3-(4-(cyclopropylamino)-8-fluoroquinazolin-6-yl)benzyl)methane sulfonamide], the IC50 amounted to 220 nM.

As to `CS(=O)(=O)N(Cc1ccccc1)Cc1cccc(-c2ccc3ncnc(NC4CC4)c3c2)c1` [Example 222, N-benzyl-N-(3-(4-(cyclopropylamino)quinazolin-6-yl)benzyl)methane sulfonamide], the IC50 stood at 4610 nM.

For `O=C(CC(F)(F)F)N(Cc1cc(-c2ccc3ncnc(NC4CC4)c3c2)ccc1F)C1CC1` [Example 282, N-cyclopropyl-N-(5-(4-(cyclopropylamino)quinazolin-6-yl)-2-fluorobenzyl)-3,3,3-trifluoropropanamide], the IC50 worked out at 50 nM.

On to `O=C1CCC(=O)N1Cc1cc(-c2ccc3ncnc(NC4CC4)c3c2)ccc1F` [Example 193, 1-(5-(4-(cyclopropylamino)quinazolin-6-yl)-2-fluorobenzyl)pyrrolidine-2,5-dione], for which the IC50 is 270 nM.

In the case of `CCCN(Cc1cccc(-c2ccc3ncnc(NC4CC4)c3c2)c1)C(C)=O` [Example 887, N-(3-(4-(cyclopropylamino)quinazolin-6-yl)benzyl)-N-propylacetamide hydrochloride], the IC50 is 3100 nM.

Still in this experiment, the particulars now being: 10 μM compound, 5 nM [3H]-MPEP.
Consider `COc1ccc(S(=O)(=O)N(Cc2cccc(-c3cc4c(NC5CC5)ncnc4cc3C)c2)C2CC2)cc1` [Example 659, N-cyclopropyl-N-(3-(4-(cyclopropylamino)-7-methylquinazolin-6-yl)benzyl)-4-methoxybenzole sulfonamide], for which the “% Inhibition of mGluR5 Receptor (pig) [^3H]-MPEP Bond at 10 μM” value (shortened to “% Inhibition of mGluR5 Receptor (pig)”) amounted to 86%.

Take `CCCCC(=O)N(C)Cc1cc(-c2ccc3ncnc(NCc4ccccc4)c3c2)ccc1F` [Example 549, N-(5-(4-(benzylamino)quinazolin-6-yl)-2-fluorobenzyl)-N-methyl pentanamide]: the “% Inhibition of mGluR5 Receptor (pig)” value worked out at 32%.

For the compound `O=S(=O)(c1ccccc1)N(Cc1cc(-c2ccc3ncnc(NC4CC4)c3c2)ccc1F)C1CC1` [Example 368, N-cyclopropyl-N-(5-(4-(cyclopropylamino)quinazolin-6-yl)-2-fluorobenzyl)benzole sulfonamide], the “% Inhibition of mGluR5 Receptor (pig)” value turned out to be 85%.

For the compound `CC(C)(C)Nc1ncnc2ccc(-c3ccc(F)c(CN(C4CC4)S(=O)(=O)c4cccs4)c3)cc12` [Example 810, N-(5-(4-(tert-butylamino)quinazolin-6-yl)-2-fluorobenzyl)-N-cyclopropyl thiophene-2-sulfonamide], the “% Inhibition of mGluR5 Receptor (pig)” value is 45%.

Staying with this experiment, now noted: 10 μM compound, 5 nM [3H]-MPEP, read-out: % Inhibition of mGluR5 Receptor (pig) [^3H]-MPEP Bond at 10 μM.
In the case of `Cc1nc(NC2CC2)c2cc(-c3cccc(CN(C(=O)c4ccccc4C(F)(F)F)C4CC4)c3)ccc2n1` [Example 666, N-cyclopropyl-N-(3-(4-(cyclopropylamino)-2-methylquinazolin-6-yl)benzyl)-2-(trifluoromethyl)benzamide], the inhibition at 10 µM came to 43%.

As for `CNc1ncnc2ccc(-c3ccc(F)c(CN(C)C(=O)c4ccc(C(F)(F)F)cc4F)c3)cc12` [Example 593, 2-fluoro-N-(2-fluoro-5-(4-(methylamino)quinazolin-6-yl)benzyl)-N-methyl-4-(trifluoromethyl)benzamide], the inhibition at 10 µM came out at 52%.

For the compound `O=C(c1cc2ccccc2cn1)N(Cc1cccc(-c2ccc3ncnc(N4CCCC4)c3c2)c1)C1CC1` [Example 125, isoquinoline-3-carboxylic acid cyclopropyl-[3-(4-pyrrolidin-1-yl-quinazolin-6-yl)-benzyl]-amide], the inhibition at 10 µM was 30%.

With `c1cc(CN2CCc3ccccc32)cc(-c2ccc3ncnc(NC4CC4)c3c2)c1` [Example 292, N-cyclopropyl-6-(3-(indolin-1-ylmethyl)phenyl)quinazoline-4-amine], the inhibition at 10 µM stood at 95%.

`O=C(c1ccccc1Br)N(Cc1cccc(-c2ccc3ncnc(NC4CC4)c3c2)c1)C1CC1` [Example 157, 2-bromo-N-cyclopropyl-N-[3-(4-cyclopropylamino-quinazolin-6-yl)-benzyl]-benzamide]: the inhibition at 10 µM was determined as 90%.

Regarding `O=C(c1ccco1)N(Cc1cccc(-c2cc(F)c3ncnc(NC4CC4)c3c2)c1)C1CC1` [Example 677, N-cyclopropyl-N-(3-(4-(cyclopropylamino)-8-fluoroquinazolin-6-yl)benzyl)furan-2-carboxamide], the inhibition at 10 µM came to 93%.

Take `CNc1ncnc2ccc(-c3cccc(CN(C(=O)c4ccno4)c4ccccc4F)c3)cc12` [Example 671, N-(2-fluorophenyl)-N-(3-(4-(methylamino)quinazolin-6-yl)benzyl)isoxazole-5-carboxamide]: the inhibition at 10 µM is 40%.

Turning to `CCCN(Cc1cccc(-c2ccc3ncnc(Nc4ccccc4)c3c2)c1)C(=O)Cc1ccccn1` [Example 106, N-[3-(4-phenylamino-quinazolin-6-yl)-benzyl]-N-propyl-2-pyridin-2-yl-acetamide], the inhibition at 10 µM was 39%.

As for `N#CCC(=O)N(Cc1cccc(-c2ccc3ncnc(N4CCCC4)c3c2)c1)C1CC1` [Example 133, 2-cyano-N-cyclopropyl-N-[3-(4-pyrrolidin-1-yl-quinazolin-6-yl)-benzyl]-acetamide], the inhibition at 10 µM is 50%.

`O=C(CCc1ccccc1)N(Cc1cccc(-c2cc(F)c3ncnc(NC4CC4)c3c2)c1)C1CC1` [Example 703, N-cyclopropyl-N-(3-(4-(cyclopropylamino)-8-fluoroquinazolin-6-yl)benzyl)-3-phenylpropanamide]: the inhibition at 10 µM amounted to 87%.

Consider `Cc1nc(NC2CC2)c2cc(-c3ccc(F)c(CN(C(=O)c4ccccn4)C4CC4)c3)ccc2n1` [Example 604, N-cyclopropyl-N-(5-(4-(cyclopropylamino)-2-methylquinazolin-6-yl)-2-fluorobenzyl)picolinamide], for which the inhibition at 10 µM was 41%.

In the case of `Cc1nc(C(=O)N(Cc2cccc(-c3cc4c(NC5CC5)ncnc4cc3C)c2)C2CC2)cs1` [Example 759, N-cyclopropyl-N-(3-(4-(cyclopropylamino)-7-methylquinazolin-6-yl)benzyl)-2-methylthiazole-4-carboxamide], the inhibition at 10 µM is 83%.

With `Cc1cc(C(=O)N(Cc2cc(-c3ccc4ncnc(NC5CC5)c4c3)ccc2Cl)C2CC2)n(C)n1` [Example 776, N-(2-chloro-5-(4-(cyclopropylamino)quinazolin-6-yl)benzyl)-N-cyclopropyl-1,3-dimethyl-1H-pyrazole-5-carboxamide], the inhibition at 10 µM is 55%.

With `Cc1nc(NC2CC2)c2cc(-c3ccc(F)c(CN(C(=O)C4CCCCC4)C4CC4)c3)ccc2n1` [Example 639, N-cyclopropyl-N-(5-(4-(cyclopropylamino)-2-methylquinazolin-6-yl)-2-fluorobenzyl)cyclohexane carboxamide], the inhibition at 10 µM was found to be 46%.

On to `Cc1ccc(C(=O)N(Cc2cccc(-c3ccc4ncnc(N5CCCC5)c4c3)c2)C2CC2)cc1` [Example 134, N-cyclopropyl-4-methyl-N-[3-(4-pyrrolidin-1-yl-quinazolin-6-yl)-benzyl]-benzamide], for which the inhibition at 10 µM was 58%.

Turning to `O=C1c2ccccc2C(=O)N1Cc1cccc(-c2ccc3ncnc(NC4CC4)c3c2)c1` [Example 241, 2-[3-(4-cyclopropylamino-quinazolin-6-yl)-benzyl]-isoindole-1,3-dione; hydrochloride], the inhibition at 10 µM is 33%.

With `CC(C)S(=O)(=O)N(Cc1cccc(-c2cc(F)c3ncnc(NC4CC4)c3c2)c1)C1CC1` [Example 824, N-cyclopropyl-N-(3-(4-(cyclopropylamino)-8-fluoroquinazolin-6-yl)benzyl)propane-2-sulfonamide], the inhibition at 10 µM came to 71%.

`O=C(c1ccncc1)N(Cc1cc(-c2ccc3ncnc(NC4CC4)c3c2)ccn1)C1CC1` [Example 823, N-cyclopropyl-N-((4-(4-(cyclopropylamino)quinazolin-6-yl)pyridin-2-yl)methyl)isonicotinamide]: the inhibition at 10 µM was 62%.

With `CCCN(Cc1cccc(-c2ccc3ncnc(Nc4ccccc4)c3c2)c1)C(=O)c1ccc(O)nc1` [Example 111, 6-hydroxy-N-[3-(4-phenylamino-quinazolin-6-yl)-benzyl]-N-propyl-nicotinamide], the inhibition at 10 µM stood at 46%.

Turning to `Cc1cc(C(=O)N(Cc2cccc(-c3cc(F)c4ncnc(NC5CC5)c4c3)c2)C2CC2)n(C)n1` [Example 760, N-cyclopropyl-N-(3-(4-(cyclopropylamino)-8-fluoroquinazolin-6-yl)benzyl)-1,3-dimethyl-1H-pyrazole-5-carboxamide], the inhibition at 10 µM was 93%.

Turning to `Fc1c(CNC2CC2)cccc1-c1ccc2ncnc(NC3CC3)c2c1` [Example 324, N-cyclopropyl-6-(3-((cyclopropylamino)methyl)-2-fluorophenyl)quinazoline-4-amine], the inhibition at 10 µM was 55%.

On to `O=C(c1cccc(F)c1)N(Cc1cc(-c2ccc3ncnc(NC4CC4)c3c2)ccc1Cl)C1CC1` [Example 791, N-(2-chloro-5-(4-(cyclopropylamino)quinazolin-6-yl)benzyl)-N-cyclopropyl-3-fluorobenzamide], for which the inhibition at 10 µM came out at 89%.
